Results on six compounds are retold here after patent US8589175B2, “Optimization and individualization of medication selection and dosing” (Children's Hospital Medical Center, priority 2005, dated 2013).

Molecules are shown by their SMILES.

Series [1] has as its system CYP2C19. The series can be described thus: dosing recommendation per CYP2C19 metabolizer subgroup as percentage of usual population dose (Equations 4-6). From the text: Assuming the goal is to maintain the same AUC for all three subpopulations of patients, the following subpopulation dosing relationships hold: DPM=DEM*(AUCEM/AUCPM) OR DPM=DEM*R if R=(AUCEM/AUCPM) (Equation 2) DIM=DEM*(AUCEM/AUCIM) OR DIM=DEM*S if S=(AUCEM/AUCIM) (Equation 3)
By substituting equations 2 and 3 into equation 1, and then rearranging the equation to solve for the percent dose adjustment needed for each subgroup relative to the population dose: DEM(%)=100/(fEM+fIM*S+fPM*R) (Equation 4) DPM(%)=R*DEM (Equation 5) DIM(%)=S*DEM (Equation 6) Equations 4, 5, and 6 show how the dosing for the more homogeneous subgroups is determined and how the dosing results are expressed as a fraction of the clinician's usual heterogeneous whole group dosages. Determining “Minimal Dose Adjustment Units”
Example: The approach in the previous section leads to individualized initial drug dose recommendations for each of the 3 subgroups (extensive, poor and intermediate metabolizers). Each subgroup represents a specific number of functional alleles for the specific DME (extensive metabolizers have 2 functional, intermediate metabolizers have 1 functional and poor metabolizers have 0 functional). The resultant dosing recommendations are expressed as percentages of the clinician's usual starting dose. It is possible to investigate the effect of increasing numbers of non-functional alleles using these new dosing recommendations. For example, if DRX % is the dosing recommendation for subgroup X expressed as a percentage of the clinician's usual starting dose then the following are true: Effect of […] 1 non-functional allele=(DREM %−DRIM %)/DREM % Effect of 2 non-functional allele=(DREM %−DRPM %)/DREM % Below is a spreadsheet (Table 3) that examines this for CYP2D6, CYP2C19 and CYP2C9. […] 2C9 has 2 MDA units per non-functional allele.

In series [2] the test system is CYP2D6. Conditions: human.

For the compound `CN1CCN(C2=Nc3cc(Cl)ccc3Nc3ccccc32)CC1` [clozapine], in series [1] (human), the “1 al (effect of 1 non-functional allele)” value was 0.13, the “2 al (effect of 2 non-functional alleles)” value is given as 0.25, the “2 al/1 al” value came out at 2.00 and the “IM (%) dosing recommendation” value was 91%. In addition, in series [1] (human), the “PM (%) dosing recommendation” value is reported as 78% and the “UM (%) dosing recommendation” value is 104%. In series [2], the “1 al (effect of 1 non-functional allele)” value is recorded as −0.11, the “2 al (effect of 2 non-functional alleles)” value was −0.20, the “EM (%) dosing recommendation” value was determined as 94% and the “IM (%) dosing recommendation” value is recorded as 104%. In series [2], the “PM (%) dosing recommendation” value is 113% and the “UM (%) dosing recommendation” value amounted to 84%.

Regarding `CN(C)CCC=C1c2ccccc2COc2ccccc21` [doxepin], in series [1] (human), the “1 al (effect of 1 non-functional allele)” value was determined as 0.13, the “2 al (effect of 2 non-functional alleles)” value came to 0.54, the “IM (%) dosing recommendation” value was 91% and the “PM (%) dosing recommendation” value was found to be 46%. In series [2], the “1 al (effect of 1 non-functional allele)” value came to 0.35, the “2 al (effect of 2 non-functional alleles)” value stood at 0.72, the “EM (%) dosing recommendation” value stood at 127% and the “IM (%) dosing recommendation” value was determined as 82%. In series [2], the “PM (%) dosing recommendation” value was 36% and the “UM (%) dosing recommendation” value was found to be 173%.

As to `CNCCC(Oc1ccc(C(F)(F)F)cc1)c1ccccc1` (stereo not shown) [fluoxetine], in series [1] (CYP2C19), the “1 al (effect of 1 non-functional allele)” value is on record as 0.20 and the “2 al (effect of 2 non-functional alleles)” value is 0.35. In addition, the “IM (%) dosing recommendation” value in series [1] (CYP2C19 intermediate metabolizers, percent of usual dose) was 86%. Besides, the “PM (%) dosing recommendation” value in series [1] (CYP2C19 poor metabolizers, percent of usual dose) is given as 70%. In series [2], the “1 al (effect of 1 non-functional allele)” value is 0.12, the “2 al (effect of 2 non-functional alleles)” value was determined as 0.27, the “IM (%) dosing recommendation” value worked out at 94% and the “PM (%) dosing recommendation” value came to 78%. Also, the “UM (%) dosing recommendation” value in series [2] was 120%.

Regarding `CNCCCC12CCC(c3ccccc31)c1ccccc12` [maprotiline], in series [1] (human), the “1 al (effect of 1 non-functional allele)” value was found to be 0.00, the “2 al (effect of 2 non-functional alleles)” value was 0.00, the “IM (%) dosing recommendation” value was 100% and the “PM (%) dosing recommendation” value is on record as 100%. Besides, in series [1] (human), the “UM (%) dosing recommendation” value came to 100%. In series [2], the “1 al (effect of 1 non-functional allele)” value is on record as 0.35, the “2 al (effect of 2 non-functional alleles)” value turned out to be 0.72, the “2 al/1 al” value is recorded as 2.02 and the “EM (%) dosing recommendation” value was 127%. Further, in series [2], the “IM (%) dosing recommendation” value came out at 82%, the “PM (%) dosing recommendation” value worked out at 36% and the “UM (%) dosing recommendation” value is 173%.

Take `CN1CCN2c3ccccc3Cc3ccccc3C2C1` (stereo not shown) [mianserin]: in series [1] (human), the “1 al (effect of 1 non-functional allele)” value came to 0.00, the “2 al (effect of 2 non-functional alleles)” value is 0.00, the “IM (%) dosing recommendation” value turned out to be 100% and the “PM (%) dosing recommendation” value was determined as 100%. Besides, the “UM (%) dosing recommendation” value in series [1] (human) came out at 100%. Moreover, in series [2], the “1 al (effect of 1 non-functional allele)” value turned out to be 0.21, the “2 al (effect of 2 non-functional alleles)” value was found to be 0.35, the “2 al/1 al” value is reported as 1.67 and the “EM (%) dosing recommendation” value is 114%. Besides, in series [2], the “IM (%) dosing recommendation” value was found to be 90%, the “PM (%) dosing recommendation” value is reported as 74% and the “UM (%) dosing recommendation” value was determined as 134%.

For `O=C(NCCN1CCOCC1)c1ccc(Cl)cc1` [moclobemide], in series [1] (human), the “1 al (effect of 1 non-functional allele)” value is on record as 0.25, the “2 al (effect of 2 non-functional alleles)” value stood at 0.51, the “2 al/1 al” value amounted to 2.00 and the “IM (%) dosing recommendation” value amounted to 82%. Also, in series [1] (human), the “PM (%) dosing recommendation” value is listed as 54% and the “UM (%) dosing recommendation” value was 110%. For the same compound, in series [2], the “1 al (effect of 1 non-functional allele)” value is −0.16, the “2 al (effect of 2 non-functional alleles)” value is −0.32, the “EM (%) dosing recommendation” value worked out at 92% and the “IM (%) dosing recommendation” value was 107%. For the same compound, in series [2], the “PM (%) dosing recommendation” value came to 121% and the “UM (%) dosing recommendation” value came to 77%.
